For one compound, inhibition and inhibition in vivo results are on record in patent publication US5270308A, “1,3-benzoxazine derivatives, their production and use” (Takeda Chemical Industries, Ltd., priority 1990, dated 1993).

In assay [1] the test system is Rat Aorta Sample (constriction by TEA and Ba). Description: Vasorelaxation activity in rat aorta sample: effect on constriction caused by tetraethylammonium chloride (TEA) and barium chloride (Ba). It counts as cell-based, Male Wister rats. As to conditions: TEA (30 to 45 mM) and Ba (0.3 mM), rat aorta ring, read-out: constriction inhibitory ratio (%). On the procedure:
(§1) Vasorelaxation Activity in Rat Aorta Sample
Effect on Relaxation Caused by Tetraethylammonium Chloride (TEA) and Barium Chloride (Ba)
Method: Male Wister rats (10 to 13 weeks old) were used for the experiment. After dehematization, the aorta was excised and a ring sample (5 mm) was prepared. The sample was suspended in a bath filled with oxygenated (95% O2 -5% CO2) Krebs solution (36° C.). The ring sample was fixed at one end and the other end was connected to a transducer (Nippon Koden, Japan) for recording tension and the tension was measured. After a stabilization period of 1 hour, TEA (30 to 45 mM) and Ba (0.3 mM) were added to the bath to cause vasoconstriction. After the constriction has reached a steady state (after about 15 minutes), a test compound was added to the bath and its relaxation activity was measured.
Result: The results are shown in Table 3 in terms of the inhibitory ratio of the test compound.

Assay [2] concerns Rat Aorta Sample (constriction by KCl). Description: Vasorelaxation activity in rat aorta sample: effect on constriction caused by potassium chloride (KCl). It counts as cell-based, Male Wister rats. As to conditions: KCl (80 mM), rat aorta ring, read-out: constriction inhibitory ratio (%). On the procedure: as §1
Effect on Relaxation Caused by Potassium Chloride (KCl)
Method: According to the same manner as that described in Experiment 1, this experiment was carried out except that KCl (80 mM) was used instead of TEA and Ba.
Result: The results are shown in Table 4 in terms of the inhibitory ratio of the test compound.

Assay [3] relates to spontaneously hypertensive rat. Description: Hypotensive activity in spontaneously hypertensive rats. As to conditions: po, orally, conscious spontaneously hypertensive rat, male, 20 to 23 weeks old, read-out: maximum effect (%) (mean ratio of maximum decrease in the blood pressure). Format: in vivo. The procedure:
Hypotensive Activity in Rats
Method: A spontaneously hypertensive rat (male, 20 to 23 weeks old) was operated in advance for retaining a cannula for blood pressure measurement in the left femoral artery. The experiment was carried out for the rat when waking on the next day after the operation. The cannula was connected with a transducer (Specrtramed) upon the experiment and the blood pressure was measured (Nippon Koden, Japan). A test compound was suspended in gum arabic and the suspension was administered orally.

Turning to `CC1(C)N=C(c2cccc[n+]2[O-])c2cc(Br)c(Cl)cc2O1` [Compound 89, 2-(6-bromo-7-chloro-2,2-dimethyl-2H-1,3-benzoxazin-4-yl)pyridine 1-oxide], the inhibition at 1 µM is 59% in assay [1] (1 μM) and -11% in assay [2] (1 μM). In addition, the inhibition at 3 µM in assay [1] (3 μM) is 67%; in assay [2] (3 μM), -8%. In addition, the values for the inhibition at 10 µM in assay [1] (10 μM) and in assay [2] (10 μM) were 71% and -3%, respectively. Besides, the inhibition in vivo at 1 mg/kg in assay [3] is 33%.
